Results as given in PubChem BioAssay (NCI).
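Tested at 5 concentrations; 48 h exposure; 96-well plates; endpoints linearly interpolated, else capped at highest concentration. TGI denotes the concentration required for complete inhibition of growth.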

Tests used:
Assay in all cases: NCI tumour cell line growth inhibition, 48 h
[1] = tested on: 786-0 renal
[2] = tested on: A498 renal
[3] = tested on: A549 NSCLC
[4] = tested on: ACHN renal
[5] = tested on: BT-549 breast
[6] = tested on: CAKI-1 renal
[7] = tested on: CCRF-CEM leukemia
[8] = tested on: COLO 205 colon
[9] = tested on: DU-145 prostate
[10] = tested on: EKVX NSCLC
[11] = tested on: HCC-2998 colon
[12] = tested on: HCT-116 colon
[13] = tested on: HCT-15 colon
[14] = tested on: HOP-62 NSCLC
[15] = tested on: HOP-92 NSCLC
[16] = tested on: HS 578T breast
[17] = tested on: HT29 colon
[18] = tested on: K-562 leukemia
[19] = tested on: KM12 colon
[20] = tested on: LOX IMVI melanoma
[21] = tested on: M14 melanoma
[22] = tested on: MALME-3M melanoma
[23] = tested on: MCF7 breast
[24] = tested on: MDA-MB-231 breast
[25] = tested on: MDA-MB-435
[26] = tested on: MDA-N
[27] = tested on: MOLT-4 leukemia
[28] = tested on: NCI-H226 lung
[29] = tested on: NCI-H23 lung
[30] = tested on: NCI-H460 lung
[31] = tested on: NCI-H522 lung
[32] = tested on: NCI/ADR-RES ovarian
[33] = tested on: OVCAR-3 ovarian
[34] = tested on: OVCAR-4 ovarian
[35] = tested on: OVCAR-5 ovarian
[36] = tested on: OVCAR-8 ovarian
[37] = tested on: PC-3 prostate
[38] = tested on: RPMI-8226 leukemia
[39] = tested on: RXF 393 renal
[40] = tested on: SF-268 CNS
[41] = tested on: SF-295 CNS
[42] = tested on: SF-539 CNS
[43] = tested on: SK-MEL-2 melanoma
[44] = tested on: SK-MEL-28 melanoma
[45] = tested on: SK-MEL-5 melanoma
[46] = tested on: SN12C renal
[47] = tested on: SNB-19 CNS
[48] = tested on: SR leukemia
[49] = tested on: SW-620 colon
[50] = tested on: T-47D breast
[51] = tested on: TK-10 renal
[52] = tested on: U251 CNS
[53] = tested on: UACC-257 melanoma
[54] = tested on: UACC-62 melanoma
[55] = tested on: UO-31 renal

CCCCOc1ccc(S(=O)(=O)/N=C(\NO)Nc2ccc(Cl)cc2)cc1
TGI [1]: 29.2 µM
TGI [2]: 26.7 µM
TGI [3]: 30.5 µM
TGI [4]: 28.2 µM
TGI [5]: 26.7 µM
TGI [6]: 23.2 µM
TGI [7]: 62.1 µM
TGI [8]: 35.7 µM
TGI [9]: 30.1 µM
TGI [10]: 29.5 µM
TGI [11]: 28.9 µM
TGI [12]: 30.6 µM
TGI [13]: 30.4 µM
TGI [14]: 32.4 µM
TGI [15]: 19.3 µM
TGI [16]: 51.3 µM
TGI [17]: 32.6 µM
TGI [18]: 41.2 µM
TGI [19]: 31.7 µM
TGI [20]: 31 µM
TGI [21]: 28.8 µM
TGI [22]: 32.7 µM
TGI [23]: 28.8 µM
TGI [24]: 33.9 µM
TGI [25]: 30.6 µM
TGI [26]: 31.6 µM
TGI [27]: 31.8 µM
TGI [28]: 43.4 µM
TGI [29]: 29.4 µM
TGI [30]: 32.7 µM
TGI [31]: 30.1 µM
TGI [32]: 33.1 µM
TGI [33]: 28.4 µM
TGI [34]: 23.6 µM
TGI [35]: 33.6 µM
TGI [36]: 36.2 µM
TGI [37]: 29.7 µM
TGI [38]: 50.9 µM
TGI [39]: 30.2 µM
TGI [40]: 33.3 µM
TGI [41]: 30.8 µM
TGI [42]: 37 µM
TGI [43]: 31.6 µM
TGI [44]: 36.1 µM
TGI [45]: 28.1 µM
TGI [46]: 31 µM
TGI [47]: 30.5 µM
TGI [48]: 67.3 µM
TGI [49]: 40.3 µM
TGI [50]: 26.2 µM
TGI [51]: 28.7 µM
TGI [52]: 30.8 µM
TGI [53]: 30.4 µM
TGI [54]: 28.8 µM
TGI [55]: 24.6 µM
